Bounds are passed on as bounds.

For orientation: melting point means the temperature, or range, at which the solid turns liquid.

With `NCC(O)C1=CC2(CCCCC2)c2ccccc21` (stereo unspecified), the melting point amounted to 117 °C. As for `COc1ccc(C2CCC(=O)CC2NC(=O)c2ccc(OCC3CC3)c(OCC3CC3)c2)cc1OC` (stereo unspecified), the melting point was in the range of 150 to 152 °C.

As to `CC(=O)N1CCc2c(c3ccc(-n4ccc(OCc5ccccc5)cc4=O)cc3n2C)C1`, the melting point lay within 225 to 230 °C. On to `CCn1nnnc1CCC1(C)Cn2cc([N+](=O)[O-])nc2O1` (stereo unspecified), for which the melting point lay within 135 to 137 °C. In the case of `CC(C)=CCOc1ccc(C(=O)C=Cc2ccc(F)cc2)c(O)c1` it was 96 to 97 °C; in that of `N#Cc1ccc(Oc2ccccc2[N+](=O)[O-])cc1C#N`, 127 °C; in that of `CCCn1c(COCc2ccc(OC)cc2)nc(C(C)C)c1Sc1cc(Cl)cc(Cl)c1`, 104 to 107 °C. `CCCCS(=O)(=O)NCCc1nc(-c2ccc(-c3ccccc3)cc2)c[nH]1` showed a melting point of 168 °C. On to `O=C(C=Cc1ccc(O)cc1)NCCO`, for which the melting point lay within 149 to 151 °C.

In turn, `CCCCn1c(=O)n(CCC)c(=O)c2c(N)n[nH]c21` gave a melting point of 209 to 211 °C.

`O=C1OC(=O)C(c2ccccc2)=C1c1ccccc1` gave a melting point of 183 to 184 °C. `CCOC(=O)c1cn2c3c(cc(CN4CCOCC4)cc3c1=O)OC(c1ccccc1)C2` (stereo unspecified) gave a melting point of 213 to 215 °C. Then `COc1cc(-c2cnc3[nH]cc(C(=O)C4(C)CCC(O)CC4)c3n2)cc(OC)c1OC` (stereo unspecified), with 242 to 244 °C.

Compound `CS(=O)(=O)c1ccc(-c2c(-c3ccc(O)cc3)[nH]c3ccc(Cl)cc23)cc1` displayed a melting point of 271 to 273 °C. Compound `O=C(Nc1cccnc1)N1CCN(c2nc(-c3ccccc3)cs2)CC1` yielded a melting point of 74 to 75 °C.

Regarding `OCc1cc2cc(OCc3ccccc3)c(F)cc2nc1I`, the melting point came to 188 °C. In the case of `C=CCn1c(=O)c2cccnc2n(-c2cccc([N+](=O)[O-])c2)c1=O` it was 188 to 189 °C; in that of `CCOC(=O)C1=C(C)NC(C)=C(C(=O)OCCOC)C1c1cccc(Cl)c1Cl` (stereo unspecified), 139 °C; in that of `CCC(C)(C)c1ccc(OC(C)=O)c(C2(OC(C)=O)C(=O)c3ccccc3C2=O)c1`, 146 to 151 °C. Then `N#Cc1cn(-c2c(Cl)cc(C(F)(F)F)cc2Cl)cc1I`, with 118 to 120 °C; and `COC(=O)C(=Cc1c[nH]c2cc(Cl)ccc12)[N+](=O)[O-]`, with 159 to 160 °C. Then `CNCc1ccc(S(C)(=O)=O)c(S(=O)(=O)NC(C)(C)C)c1`, with 76 to 78 °C; and `CC(C)Cn1nc(-c2ccccc2)cc(COS(C)(=O)=O)c1=O`, with 130 °C; and `CCOP(=O)(CCNC(=O)c1c(CC)nc2cc(OC)c(OC)cc2c1-c1ccc(OC)c(OC)c1)OCC`, with 157 to 158 °C.

`CCOc1ccc2c(c1)C(C)(c1cc(C(=O)N3CCN(C)CC3)ccc1Cl)C(=O)N2S(=O)(=O)c1ccc(C(=O)NC(C)(C)C)cc1OC` (stereo unspecified) registered a melting point of 96 °C.

In the case of `CS(=O)(=O)Nc1cccc(Nc2nc(NCc3ccccc3O)c3nc[nH]c3n2)c1`, the melting point was in the range of 168 to 171 °C. In the case of `CSC1=NC(=O)/C(=C/c2ccccc2Nc2c(Cl)ccc(C)c2Cl)S1`, the melting point fell in the range of 233 to 236 °C. Then `Cc1cccc(C(=O)NCC2CC2)c1NC(=O)c1cc(C(F)(F)F)nn1-c1ncccc1Cl`, with 199 °C.

Regarding `O=C(Cc1ccc(F)cc1)c1c(O)c2cccnc2n(-c2cccc(OC(F)(F)F)c2)c1=O`, the melting point lay in the range of 137 to 138 °C. The compound `COc1cc2c(c(OC)c1OC)C=C(C=CC(=O)N1CCC(C3CCN(C(=O)C=CC4=Cc5c(cc(OC)c(OC)c5OC)CC4)CC3)CC1)CC2` returned a melting point of 253 to 256 °C. `CC(C)(C(=O)O)c1oc2cccc-2cc1-c1ccccc1` registered a melting point of 169 to 171 °C.

For the compound `CCc1sc2c(c1S(=O)(=O)c1ccc(O)cc1)CN(Cc1ccccc1Cl)CC2`, the melting point amounted to 176 °C. Then `CCn1cc(C(=O)O)c(=O)c2cc(F)c(N3CCNC(COc4ccccc4)C3)cc21` (stereo unspecified), with 198 to 200 °C; and `Cc1cccnc1C(CO)COc1ccc(CC2SC(=N)NC2=O)cc1` (stereo unspecified), with 213 to 214 °C. Compound `Cc1csc2ncc(CO)n12` gave a melting point of 161 to 162 °C.

For the compound `CC(C)CCCC(C)C1CCC2C3=C(CCC21C)C1(C)CCC(O)C(C)(C)C1CC3` (stereo unspecified), the melting point was in the range of 154 to 155 °C. `COC(=O)c1ccc(C(N)=O)cc1Cl` showed a melting point of 154 to 156 °C. Compound `O=C(Nc1cccc(OCc2cccnc2)c1)N1CCOCC1` came in with a melting point of 58 to 62 °C. `COC(=O)[C@@H]1CCN1S(=O)(=O)c1ccc(Cl)c(CBr)c1Cl` returned a melting point of 150 °C.

`CC(=O)c1nnc2n1-c1sc(Cl)cc1C(c1ccccc1Cl)=NC2` showed a melting point of 89 to 91 °C. Then `O=c1[nH]c2cc(Cl)ccc2c(O)c1-c1ccc2c(c1)OCO2`, with more than 350 °C. Consider `CCOCc1cccc2cc(C(N)=O)oc12`, for which the melting point fell in the range of 133 to 134 °C. The compound `CCCCCOC(=O)Cc1sc(F)c(N=c2sc(=O)n3n2CCCC3)c1Cl` showed a melting point of 39 to 41 °C. Then `Cn1ncnc1COc1nc2c(cc1-c1ccccc1)nnn2-c1ccccc1F`, with 144 to 146 °C; and `O=C1CCCN1c1ccc2c(c1)OCO2`, with 89 to 91 °C. In turn, `COC(=O)c1cc(I)ccc1OC` gave a melting point of 48 to 50 °C. Consider `CCOC(=O)C(Cc1c(Br)c(OC)c(OC)c(OC)c1OC)(C(=O)OCC)c1ccc(OCc2ccccc2)cc1`, for which the melting point lay within 93 to 94 °C.

In the case of `CSc1ccc(C(C#N)=NO)cc1`, the melting point was 132 to 133 °C. In turn, `Cc1c(C)c(N2CCN(c3nc(-c4ccccc4)ns3)CC2)c(C)c2c1OC(C)(C)C2` came in with a melting point of 204 to 205 °C.

Regarding `COc1cc(C2NCCS2)ccc1O` (stereo unspecified), the melting point lay in the range of 158 to 161 °C. Then `C=CCN1CCc2c([nH]c3ccccc23)C(C(=O)OC)C1` (stereo unspecified), with 105 to 108 °C; and `O=C1N[C@@H](C(=O)O)CCCCCC[C@@H]1CS` (relative stereo), with 180 to 185 °C.

With `CCCCCCCCCCCCCCCCCCOc1ccc(C(=O)O)o1`, the melting point lay within 117 to 118 °C. Then `CCOC(=O)COc1ccc(C=NCCN=Cc2ccc(OCC(=O)OCC)cc2O)c(O)c1`, with 104 to 106 °C; and `OC1CCCCC1Oc1ccc(Oc2ccccc2)cc1` (stereo unspecified), with 103 to 105 °C.

`O=C1C2=C(NC3(C=N2)SCCS3)c2ccccc21` displayed a melting point of 284 to 290 °C. `CC1(C)Cc2nc(C3CC3)c(Cc3ccc(C(F)(F)F)cc3)c(-c3ccc(F)c(F)c3)c2C(O)C1` (stereo unspecified): the melting point lay in the range of 126 to 127 °C. On to `COc1cc2c(cc1C)CCC2c1cnc[nH]1` (stereo unspecified), for which the melting point is 68 to 70 °C. Turning to `N#Cc1cc(=O)c2c(o1)c1ccccc1n2-c1ccccc1`, the melting point was 192 to 193 °C. Compound `COc1cc(N)c(Cl)cc1C(=O)Nc1cc(OC)c(C(=O)N[C@H]2CCN(CCCOc3ccc(F)cc3)C[C@H]2OC)cc1Cl` (relative stereo) displayed a melting point of 182 °C. In the case of `COc1ccc(OCCCCCBr)c(C2Sc3cc(Cl)ccc3N(C)C2=O)c1` (stereo unspecified) it was 105 to 106 °C; in that of `OCCNc1nc(NCc2ccccc2)c2ncc(Nc3ncccn3)cc2n1`, 141 to 142 °C; in that of `OC(CSC1CCCCC1)CSC1CCCCC1`, 85.5 to 88.5 °C. Then `Cn1nnnc1CC(=O)c1cc(F)c(Cl)cc1N`, with 180 to 184 °C. Then `CC(C)(C)[Si](C)(C)Oc1ccc2c(ccc3c4ccc(O[Si](C)(C)C(C)(C)C)cc4oc(=O)c23)c1`, with 154 to 156 °C; and `CC(CO)NC(=O)COc1cc(Cl)ccc1C(=O)NCCN1CCN(Cc2ccc(Cl)c(Cl)c2)CC1` (stereo unspecified), with 115 to 116 °C; and `CS(=O)(=O)c1ccc(C2=C(c3ccccc3)CCC2)cc1`, with 136 to 137 °C. Regarding `CC(C)CCOc1c(-c2ccc(S(C)(=O)=O)cc2)cnn(-c2ccc(F)c(F)c2)c1=O`, the melting point is 121 to 123 °C. In the case of `CC(C(=O)NO)S(=O)Cc1ccc(Cl)cc1` (stereo unspecified) it was 132 to 133 °C. Then `CC(=O)SC(CC(=O)c1ccc(Oc2ccc(Br)cc2)cc1)C(=O)O` (stereo unspecified), with 117 to 118 °C; and `O=C(NCC(F)(F)F)C1c2cc(F)ccc2-c2c(CCCCN3CCC(N4C(=O)c5ccccc5C4=O)CC3)cc(F)cc21` (stereo unspecified), with 186 to 188 °C; and `Cn1cc(S(C)=O)c(=O)c2ccc(F)cc21` (stereo unspecified), with 226 to 228 °C.

In turn, `COc1ccc(C(CC(C)(C)C(=O)O)c2ccc(Cl)cc2)cc1` (stereo unspecified) displayed a melting point of 139 to 142 °C.

`COC(=O)CCc1ccc(OCC2CN(c3ccccc3)C(=O)O2)cc1` (stereo unspecified) displayed a melting point of 138 to 139 °C. With `COc1cc(-c2nc3ccccc3n2Cc2ccccc2Br)cc(OC)c1OC`, the melting point was 152 °C. Then `CCCCCC(=O)NS(=O)(=O)/C=C/c1cc(OCCCC)nn1Cc1ccc(Cl)cc1Cl`, with 117 to 119 °C; and `COC(=O)c1ccc(/C=C(\C)c2ccc3c(c2)C(C)(C)CCO3)cc1`, with 92 to 95 °C; and `CC(C)(C)c1cc(C=O)n(Cc2ccc(C(F)(F)F)cc2Cl)n1`, with 147 to 149 °C. In turn, `COc1cc(OC)c(-c2cc3ccccc3n2C)cc1C=CC(=O)c1ccc(C(=O)O)cc1` showed a melting point of 157 to 160 °C. Consider `CC(C)(C)OC(=O)C[C@H](NC(=O)c1ccc(CCC(=O)NC2=NCCCN2)s1)c1ccc2c(c1)OCO2`, for which the melting point is 130 °C. Take `CCOC(=O)CC(NC(=O)c1cccc(NC(=O)c2cnc(NC(=N)N)s2)c1)c1ccccc1` (racemic): the melting point is 149 °C.

On to `COc1ccc(Nc2nc(NC3CCCCCC3)nc(Oc3ccccc3C#CC(C)(C)O)n2)cc1Cl`, for which the melting point was 150 to 158 °C. Then `c1ccc2c(c1)oc1nnccc12`, with 120 to 122 °C. In the case of `C=COCCN1C(=O)CN(c2ccccc2)C1=O` it was 119 to 120 °C. For `COc1ccc(CCNC(=O)CCc2ccc(Cl)cc2)cc1C`, the melting point is 142 to 144 °C. As to `CCOC(=O)C1=C(C)NC(=S)N(C(=O)OCC)C1c1cccc(C(F)(F)F)c1` (stereo unspecified), the melting point lay within 98 to 100 °C.

Source of the values: a melting point compilation (Tetko et al.; mined from patent text by program, amines drawn as free bases though some values may be those of a salt).
